Reference: US20040058957A1, “Benzothiophene derivatives and herbicidal compositions containing the same” (priority 2000, published 2004)

Assays:
Type in all cases: in vivo
Settings in all cases: rated 30 days after application
Scirpus juncoides [1] = assay: Submersion test, treatment 3 days after transplantation: herbicidal effect
Procedure: (§1) A mixture consisting of 57 parts by weight of talc and 40 parts by weight of bentonite as carrier and 3 parts by weight of sodium alkylbenzenesulfonate as surfactant was pulverized and mixed uniformly to obtain a carrier for wettable powder. Each herbicidal composition was prepared by uniformly pulverizing and mixing 90 parts by weight of the carrier for wettable powder and 10 parts by weight of the benzothiophene derivative produced in each example.
(§2) Seeds of Scirpus juncoides were sowed onto paddy field soil in a Wagner pot of 1/2000 are. Then, rice seedlings of 2.5 leaf stage were transplanted in the soil. Water was pored into the pot so as to submerge the soil at a depth of 3 cm. The pot was placed in a greenhouse maintained at 20 to 25° C. for vegetation. After 3 days from transplantation of the rice seedlings, a predetermined amount of the herbicidal composition prepared in the step [1] was applied to the pot. After 30 days from the application of the herbicidal composition, the herbicidal effect and injury to the paddy rice were determined.
(§3) The herbicidal effect and the injury to crops in the above tests (1) and (2) were evaluated based on the following ratings.
(§4) The degree of weed control (%) was calculated from the weights of the above-ground parts of fresh weeds in the treated area and the untreated area using the following equation:
(§5) Degree of weed control (%)=[1−(weight of weeds in treated area)/(weight of weeds in untreated area)]×100
(§6) The herbicidal effect was determined according to the following ratings: […]

paddy rice = assay: Submersion test, treatment 3 days after transplantation: injury to paddy rice; parameters: key: 0: No injury; 1: Substantially no injury; 2: Slight injury; 3: Some injury; 4: Remarkable injury; 5: Almost all crops dead
Procedure: A mixture consisting of 57 parts by weight of talc and 40 parts by weight of bentonite as carrier and 3 parts by weight of sodium alkylbenzenesulfonate as surfactant was pulverized and mixed uniformly to obtain a carrier for wettable powder. […] Then, rice seedlings of 2.5 leaf stage were transplanted in the soil. Water was pored into the pot so as to submerge the soil at a depth of 3 cm. The pot was placed in a greenhouse maintained at 20 to 25° C. for vegetation. […] After 30 days from the application of the herbicidal composition, the herbicidal effect and injury to the paddy rice were determined. […] The injury to crops was evaluated according to the following ratings: [table]

Scirpus juncoides [2] = assay: Submersion test, treatment 10 days after transplantation: herbicidal effect
Procedure: as §1
as §2, with “vegetation. After 10 days from” for “vegetation. After 3 days from”
as §3, §4, §5, §6

## CS(=O)(=O)c1ccc(C(=O)C2=C(Sc3ccccc3)C3CCC(C3)C2=O)c(Cl)c1 (stereo not drawn) [(B), reference compound]
Scirpus juncoides [1]; application rate 100 g/ha
  Herbicidal effect Scirpus juncoides: 3 (40% or higher but less than 70%)
Scirpus juncoides [1]; application rate 200 g/ha
  Herbicidal effect Scirpus juncoides: 4 (70% or higher but less than 90%)
Paddy rice; application rate 100 g/ha
  Injury paddy rice: 0
Paddy rice; application rate 200 g/ha
  Injury paddy rice: 0
Scirpus juncoides [2]; application rate 100 g/ha
  Herbicidal effect Scirpus juncoides: 2 (20% or higher but less than 40%)
Scirpus juncoides [2]; application rate 200 g/ha
  Herbicidal effect Scirpus juncoides: 3 (40% or higher but less than 70%)

## CSC1Cc2c(ccc(C(=O)C3=C(SCC(C)O)CCCC3=O)c2Cl)S1(=O)=O (stereo not drawn) [Compound No. 33, 4-chloro-2-methylthio-5-[3-(2-hydroxy-1-propyl)thio-1-oxo-2-cyclohexen-2-yl]carbonyl-2,3-dihydrobenzothiophene 1,1-dioxide]
Scirpus juncoides [1]; application rate 100 g/ha
  Herbicidal effect Scirpus juncoides: 4 (70% or higher but less than 90%)
Scirpus juncoides [1]; application rate 200 g/ha
  Herbicidal effect Scirpus juncoides: 5 (90% or higher (almost completely dead))
Paddy rice; application rate 100 g/ha
  Injury paddy rice: 0
Paddy rice; application rate 200 g/ha
  Injury paddy rice: 0
Scirpus juncoides [2]; application rate 100 g/ha
  Herbicidal effect Scirpus juncoides: 4 (70% or higher but less than 90%)
Scirpus juncoides [2]; application rate 200 g/ha
  Herbicidal effect Scirpus juncoides: 5 (90% or higher (almost completely dead))

## CSC1Cc2c(Cl)c(C(=O)C3=C(Cl)CCCC3=O)cc(C)c2S1(=O)=O (stereo not drawn) [Compound No. 49, 4-chloro-7-methyl-2-methylthio-5-(3-chloro-1-oxo-2-cyclohexen-2-yl)carbonyl-2,3-dihydrobenzothiophene 1,1-dioxide]
Scirpus juncoides [1]; application rate 100 g/ha
  Herbicidal effect Scirpus juncoides: 5 (90% or higher (almost completely dead))
Scirpus juncoides [1]; application rate 200 g/ha
  Herbicidal effect Scirpus juncoides: 5 (90% or higher (almost completely dead))
Paddy rice; application rate 100 g/ha
  Injury paddy rice: 0
Paddy rice; application rate 200 g/ha
  Injury paddy rice: 0
Scirpus juncoides [2]; application rate 100 g/ha
  Herbicidal effect Scirpus juncoides: 5 (90% or higher (almost completely dead))
Scirpus juncoides [2]; application rate 200 g/ha
  Herbicidal effect Scirpus juncoides: 5 (90% or higher (almost completely dead))

## CS(=O)(=O)C1Cc2c(ccc(C(=O)C3C(=O)CCCC3=O)c2Cl)S1(=O)=O (stereo not drawn) [Compound No. 15, 4-chloro-2-methanesulfonyl-5-(1,3-dioxocyclohex-2-yl)carbonyl-2,3-dihydrobenzothiophene 1,1-dioxide]
Scirpus juncoides [1]; application rate 100 g/ha
  Herbicidal effect Scirpus juncoides: 5 (90% or higher (almost completely dead))
Scirpus juncoides [1]; application rate 200 g/ha
  Herbicidal effect Scirpus juncoides: 5 (90% or higher (almost completely dead))
Paddy rice; application rate 100 g/ha
  Injury paddy rice: 0
Paddy rice; application rate 200 g/ha
  Injury paddy rice: 0
Scirpus juncoides [2]; application rate 100 g/ha
  Herbicidal effect Scirpus juncoides: 4 (70% or higher but less than 90%)
Scirpus juncoides [2]; application rate 200 g/ha
  Herbicidal effect Scirpus juncoides: 5 (90% or higher (almost completely dead))

## CSC1Cc2c(ccc(C(=O)C3=C(SCCOC(C)=O)CCCC3=O)c2Cl)S1(=O)=O (stereo not drawn) [Compound No. 34, 4-chloro-2-methylthio-5-[3-(2-acetoxyethyl)thio-1-oxo-2-cyclohexen-2-yl]carbonyl-2,3-dihydrobenzothiophene 1,1-dioxide]
Scirpus juncoides [1]; application rate 100 g/ha
  Herbicidal effect Scirpus juncoides: 4 (70% or higher but less than 90%)
Scirpus juncoides [1]; application rate 200 g/ha
  Herbicidal effect Scirpus juncoides: 5 (90% or higher (almost completely dead))
Paddy rice; application rate 100 g/ha
  Injury paddy rice: 0
Paddy rice; application rate 200 g/ha
  Injury paddy rice: 0
Scirpus juncoides [2]; application rate 100 g/ha
  Herbicidal effect Scirpus juncoides: 4 (70% or higher but less than 90%)
Scirpus juncoides [2]; application rate 200 g/ha
  Herbicidal effect Scirpus juncoides: 5 (90% or higher (almost completely dead))

## COCCSC1Cc2c(ccc(C(=O)C3C(=O)CCCC3=O)c2Cl)S1(=O)=O (stereo not drawn) [Compound No. 5, 4-chloro-2-(2-methoxyethyl)thio-5-(1,3-dioxocyclohex-2-yl)carbonyl-2,3-dihydrobenzothiophene 1,1-dioxide]
Scirpus juncoides [1]; application rate 100 g/ha
  Herbicidal effect Scirpus juncoides: 5 (90% or higher (almost completely dead))
Scirpus juncoides [1]; application rate 200 g/ha
  Herbicidal effect Scirpus juncoides: 5 (90% or higher (almost completely dead))
Paddy rice; application rate 100 g/ha
  Injury paddy rice: 0
Paddy rice; application rate 200 g/ha
  Injury paddy rice: 0
Scirpus juncoides [2]; application rate 100 g/ha
  Herbicidal effect Scirpus juncoides: 5 (90% or higher (almost completely dead))
Scirpus juncoides [2]; application rate 200 g/ha
  Herbicidal effect Scirpus juncoides: 5 (90% or higher (almost completely dead))

## COCCSC1Cc2c(ccc(C(=O)C3=C(Cl)CCCC3=O)c2Cl)S1(=O)=O (stereo not drawn) [Compound No. 25, 4-chloro-2-(2-methoxyethyl)thio-5-(3-chloro-1-oxo-2-cyclohexen-2-yl)carbonyl-2,3-dihydrobenzothiophene 1,1-dioxide]
Scirpus juncoides [1]; application rate 100 g/ha
  Herbicidal effect Scirpus juncoides: 4 (70% or higher but less than 90%)
Scirpus juncoides [1]; application rate 200 g/ha
  Herbicidal effect Scirpus juncoides: 5 (90% or higher (almost completely dead))
Paddy rice; application rate 100 g/ha
  Injury paddy rice: 0
Paddy rice; application rate 200 g/ha
  Injury paddy rice: 0
Scirpus juncoides [2]; application rate 100 g/ha
  Herbicidal effect Scirpus juncoides: 4 (70% or higher but less than 90%)
Scirpus juncoides [2]; application rate 200 g/ha
  Herbicidal effect Scirpus juncoides: 5 (90% or higher (almost completely dead))

## C[S+]([O-])C1Cc2c(ccc(C(=O)C3=C(Cl)CCCC3=O)c2Cl)S1(=O)=O (single isomer, unassigned) [Compound No. 28, 4-chloro-2-methanesulfinyl-5-(3-chloro-1-oxo-2-cyclohexen-2-yl)carbonyl-2,3-dihydrobenzothiophene 1,1-dioxide]
Scirpus juncoides [1]; application rate 100 g/ha
  Herbicidal effect Scirpus juncoides: 5 (90% or higher (almost completely dead))
Scirpus juncoides [1]; application rate 200 g/ha
  Herbicidal effect Scirpus juncoides: 5 (90% or higher (almost completely dead))
Paddy rice; application rate 100 g/ha
  Injury paddy rice: 0
Paddy rice; application rate 200 g/ha
  Injury paddy rice: 0
Scirpus juncoides [2]; application rate 100 g/ha
  Herbicidal effect Scirpus juncoides: 5 (90% or higher (almost completely dead))
Scirpus juncoides [2]; application rate 200 g/ha
  Herbicidal effect Scirpus juncoides: 5 (90% or higher (almost completely dead))

## CCOC1=C(C(=O)c2ccc3c(c2Cl)CC(SC)S3(=O)=O)C(=O)CCC1 (stereo not drawn) [Compound No. 37, 4-chloro-2-methylthio-5-(3-ethoxy-1-oxo-2-cyclohexen-2-yl)carbonyl-2,3-dihydrobenzothiophene 1,1-dioxide]
Scirpus juncoides [1]; application rate 100 g/ha
  Herbicidal effect Scirpus juncoides: 5 (90% or higher (almost completely dead))
Scirpus juncoides [1]; application rate 200 g/ha
  Herbicidal effect Scirpus juncoides: 5 (90% or higher (almost completely dead))
Paddy rice; application rate 100 g/ha
  Injury paddy rice: 0
Paddy rice; application rate 200 g/ha
  Injury paddy rice: 0
Scirpus juncoides [2]; application rate 100 g/ha
  Herbicidal effect Scirpus juncoides: 5 (90% or higher (almost completely dead))
Scirpus juncoides [2]; application rate 200 g/ha
  Herbicidal effect Scirpus juncoides: 5 (90% or higher (almost completely dead))

## CCSC1Cc2c(ccc(C(=O)C3=C(Cl)CCCC3=O)c2Cl)S1(=O)=O (stereo not drawn) [Compound No. 19, 4-chloro-2-ethylthio-5-(3-chloro-1-oxo-2-cyclohexen-2-yl)carbonyl-2,3-dihydrobenzothiophene 1,1-dioxide]
Scirpus juncoides [1]; application rate 100 g/ha
  Herbicidal effect Scirpus juncoides: 5 (90% or higher (almost completely dead))
Scirpus juncoides [1]; application rate 200 g/ha
  Herbicidal effect Scirpus juncoides: 5 (90% or higher (almost completely dead))
Paddy rice; application rate 100 g/ha
  Injury paddy rice: 0
Paddy rice; application rate 200 g/ha
  Injury paddy rice: 0
Scirpus juncoides [2]; application rate 100 g/ha
  Herbicidal effect Scirpus juncoides: 4 (70% or higher but less than 90%)
Scirpus juncoides [2]; application rate 200 g/ha
  Herbicidal effect Scirpus juncoides: 5 (90% or higher (almost completely dead))

## CSC1Cc2c(ccc(C(=O)C3=C(Cl)CCCC3=O)c2Cl)S1(=O)=O (stereo not drawn) [Compound No. 17, 4-chloro-2-methylthio-5-(3-chloro-1-oxo-2-cyclohexen-2-yl)carbonyl-2,3-dihydrobenzothiophene 1,1-dioxide]
Scirpus juncoides [1]; application rate 100 g/ha
  Herbicidal effect Scirpus juncoides: 5 (90% or higher (almost completely dead))
Scirpus juncoides [1]; application rate 200 g/ha
  Herbicidal effect Scirpus juncoides: 5 (90% or higher (almost completely dead))
Paddy rice; application rate 100 g/ha
  Injury paddy rice: 0
Paddy rice; application rate 200 g/ha
  Injury paddy rice: 0
Scirpus juncoides [2]; application rate 100 g/ha
  Herbicidal effect Scirpus juncoides: 5 (90% or higher (almost completely dead))
Scirpus juncoides [2]; application rate 200 g/ha
  Herbicidal effect Scirpus juncoides: 5 (90% or higher (almost completely dead))

## CSC1Cc2c(Cl)c(C(=O)C3=C(SCCOC(=O)CCl)CCCC3=O)cc(C)c2S1(=O)=O (stereo not drawn) [Compound No. 51, 4-chloro-7-methyl-2-methylthio-5-[3-(2-chloroacetoxyethyl)thio-1-oxo-2-cyclohexen-2-yl]carbonyl-2,3-dihydrobenzothiophene 1,1-dioxide]
Scirpus juncoides [1]; application rate 100 g/ha
  Herbicidal effect Scirpus juncoides: 4 (70% or higher but less than 90%)
Scirpus juncoides [1]; application rate 200 g/ha
  Herbicidal effect Scirpus juncoides: 5 (90% or higher (almost completely dead))
Paddy rice; application rate 100 g/ha
  Injury paddy rice: 0
Paddy rice; application rate 200 g/ha
  Injury paddy rice: 0
Scirpus juncoides [2]; application rate 100 g/ha
  Herbicidal effect Scirpus juncoides: 4 (70% or higher but less than 90%)
Scirpus juncoides [2]; application rate 200 g/ha
  Herbicidal effect Scirpus juncoides: 5 (90% or higher (almost completely dead))

## CSC1Cc2c(ccc(C(=O)C3=C(N4CCC=N4)CCCC3=O)c2Cl)S1(=O)=O (stereo not drawn) [Compound No. 38, 4-chloro-2-methylthio-5-[3-(4,5-dihydropyrazol-1-yl)-1-oxo-2-cyclohexen-2-yl]carbonyl-2,3-dihydrobenzothiophene 1,1-dioxide]
Scirpus juncoides [1]; application rate 100 g/ha
  Herbicidal effect Scirpus juncoides: 4 (70% or higher but less than 90%)
Scirpus juncoides [1]; application rate 200 g/ha
  Herbicidal effect Scirpus juncoides: 5 (90% or higher (almost completely dead))
Paddy rice; application rate 100 g/ha
  Injury paddy rice: 0
Paddy rice; application rate 200 g/ha
  Injury paddy rice: 0
Scirpus juncoides [2]; application rate 100 g/ha
  Herbicidal effect Scirpus juncoides: 4 (70% or higher but less than 90%)
Scirpus juncoides [2]; application rate 200 g/ha
  Herbicidal effect Scirpus juncoides: 5 (90% or higher (almost completely dead))
